Key:
A1R = biological target: T1, A1R (Mus musculus, UniProt Q60612); assay: TEpacVV FRET imaging of cAMP in primary neurons; assay type: cell-based; conditions: agonist, cAMP decrease, bath application
T1 sequence (Q60612 1-326): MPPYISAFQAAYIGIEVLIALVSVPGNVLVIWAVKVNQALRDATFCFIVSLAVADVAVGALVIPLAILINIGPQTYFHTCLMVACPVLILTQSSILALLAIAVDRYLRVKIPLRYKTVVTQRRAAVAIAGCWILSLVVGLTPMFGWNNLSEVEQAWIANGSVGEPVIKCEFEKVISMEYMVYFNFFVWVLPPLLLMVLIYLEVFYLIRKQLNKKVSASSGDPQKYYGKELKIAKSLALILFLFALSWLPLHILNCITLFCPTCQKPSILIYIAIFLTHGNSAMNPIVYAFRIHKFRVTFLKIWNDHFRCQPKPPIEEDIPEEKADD

[1] = biological target: D1 dopamine receptor (D1R) (Mus musculus, UniProt Q61616); conditions: agonist, cAMP increase; dMSN cell body; bath application
Sequence of D1 dopamine receptor (D1R) (Q61616 whole entry): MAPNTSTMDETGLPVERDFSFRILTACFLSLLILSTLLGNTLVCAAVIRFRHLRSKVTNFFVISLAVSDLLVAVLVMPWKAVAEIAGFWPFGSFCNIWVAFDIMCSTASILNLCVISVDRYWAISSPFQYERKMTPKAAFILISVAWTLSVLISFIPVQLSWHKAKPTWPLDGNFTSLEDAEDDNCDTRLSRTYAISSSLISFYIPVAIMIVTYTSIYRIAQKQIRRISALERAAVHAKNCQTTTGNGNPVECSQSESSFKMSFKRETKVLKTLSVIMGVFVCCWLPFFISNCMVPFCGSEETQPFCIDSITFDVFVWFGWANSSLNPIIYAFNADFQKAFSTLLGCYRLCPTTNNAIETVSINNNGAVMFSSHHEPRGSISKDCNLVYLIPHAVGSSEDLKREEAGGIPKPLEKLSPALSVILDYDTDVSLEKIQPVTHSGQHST

C[C@@]1(O)[C@H](O)[C@@H](CO)O[C@H]1n1cnc2c(NC3CCCC3)nc(Cl)nc21 [2′MeCCPA]
EC50 (A1R; dMSN): 14.6 ± 4.1 nM

Nc1ncnc2c1ncn2[C@@H]1O[C@H](CO)[C@@H](O)[C@H]1O [adenosine]
EC50 (A1R; dMSN cell body): 112 ± 34 nM

NCCc1ccc(O)c(O)c1 [dopamine]
EC50 [1]: 76.5 ± 13.9 nM
